Measurements as given in ChEMBL document CHEMBL5131391, “One-pot three-component synthesis of novel pyrazolo[3,4-b]pyridines as potent antileukemic agents” (Eur J Med Chem, 2022).
Active and inactive are the calls of the source. The rule behind the calls is not given here.

Columns and labels:
MCF7 = assay: Antiproliferative activity against human MCF7 cells assessed as growth inhibition at 10 uM measured after 48 hrs by NCI protocol based SRB assay relative to control; type: functional; conditions: read-out: GI
CCRF-CEM [1] = assay: Antiproliferative activity against human CEM cells assessed as reduction in cell viability incubated for 72 hrs by resazurin dye based assay; type: functional
OVCAR-8 = assay: Antiproliferative activity against human OVCAR-8 cells assessed as growth inhibition at 10 uM measured after 48 hrs by NCI protocol based SRB assay relative to control; type: functional; conditions: read-out: GI
ACHN = assay: Antiproliferative activity against human ACHN cells assessed as growth inhibition at 10 uM measured after 48 hrs by NCI protocol based SRB assay relative to control; type: functional; conditions: read-out: GI
HT-29 = assay: Antiproliferative activity against human HT-29 cells assessed as growth inhibition at 10 uM measured after 48 hrs by NCI protocol based SRB assay relative to control; type: functional; conditions: read-out: GI
OVCAR-4 = assay: Antiproliferative activity against human OVCAR-4 cells assessed as growth inhibition at 10 uM measured after 48 hrs by NCI protocol based SRB assay relative to control; type: functional; conditions: read-out: GI
HCT-116 = assay: Antiproliferative activity against human HCT-116 cells assessed as growth inhibition at 10 uM measured after 48 hrs by NCI protocol based SRB assay relative to control; type: functional; conditions: read-out: GI
IGROV-1 = assay: Antiproliferative activity against human IGROV-1 cells assessed as growth inhibition at 10 uM measured after 48 hrs by NCI protocol based SRB assay relative to control; type: functional; conditions: read-out: GI
786-0 = assay: Antiproliferative activity against human 786-0 cells assessed as growth inhibition at 10 uM measured after 48 hrs by NCI protocol based SRB assay relative to control; type: functional; conditions: read-out: GI
SK-MEL-2 = assay: Antiproliferative activity against human SK-MEL-2 cells assessed as growth inhibition at 10 uM measured after 48 hrs by NCI protocol based SRB assay relative to control; type: functional; conditions: read-out: GI
EKVX = assay: Antiproliferative activity against human EKVX cells assessed as growth inhibition at 10 uM measured after 48 hrs by NCI protocol based SRB assay relative to control; type: functional; conditions: read-out: GI
K562 [2] = assay: Antiproliferative activity against human K562 cells assessed as growth inhibition at 10 uM measured after 48 hrs by NCI protocol based SRB assay relative to control; type: functional; conditions: read-out: GI
NCI-H226 = assay: Antiproliferative activity against human NCI-H226 cells assessed as growth inhibition at 10 uM measured after 48 hrs by NCI protocol based SRB assay relative to control; type: functional; conditions: read-out: GI
U-251 = assay: Antiproliferative activity against human U-251 cells assessed as growth inhibition at 10 uM measured after 48 hrs by NCI protocol based SRB assay relative to control; type: functional; conditions: read-out: GI
SK-OV-3 = assay: Antiproliferative activity against human SK-OV-3 cells assessed as growth inhibition at 10 uM measured after 48 hrs by NCI protocol based SRB assay relative to control; type: functional; conditions: read-out: GI
RPMI-8226 = assay: Antiproliferative activity against human RPMI-8226 cells assessed as growth inhibition at 10 uM measured after 48 hrs by NCI protocol based SRB assay relative to control; type: functional; conditions: read-out: GI
SNB-75 = assay: Antiproliferative activity against human SNB-75 cells assessed as growth inhibition at 10 uM measured after 48 hrs by NCI protocol based SRB assay relative to control; type: functional; conditions: read-out: GI
A549 = assay: Antiproliferative activity against human A549 cells assessed as growth inhibition at 10 uM measured after 48 hrs by NCI protocol based SRB assay relative to control; type: functional; conditions: read-out: GI
SW-620 = assay: Antiproliferative activity against human SW-620 cells assessed as growth inhibition at 10 uM measured after 48 hrs by NCI protocol based SRB assay relative to control; type: functional; conditions: read-out: GI
HCT-15 = assay: Antiproliferative activity against human HCT-15 cells assessed as growth inhibition at 10 uM measured after 48 hrs by NCI protocol based SRB assay relative to control; type: functional; conditions: read-out: GI
PC-3 = assay: Antiproliferative activity against human PC-3 cells assessed as growth inhibition at 10 uM measured after 48 hrs by NCI protocol based SRB assay relative to control; type: functional; conditions: read-out: GI
SK-MEL-5 = assay: Antiproliferative activity against human SK-MEL-5 cells assessed as growth inhibition at 10 uM measured after 48 hrs by NCI protocol based SRB assay relative to control; type: functional; conditions: read-out: GI
HOP-92 = assay: Antiproliferative activity against human HOP-92 cells assessed as growth inhibition at 10 uM measured after 48 hrs by NCI protocol based SRB assay relative to control; type: functional; conditions: read-out: GI
SF-268 = assay: Antiproliferative activity against human SF-268 cells assessed as growth inhibition at 10 uM measured after 48 hrs by NCI protocol based SRB assay relative to control; type: functional; conditions: read-out: GI
SNB-19 = assay: Antiproliferative activity against human SNB-19 cells assessed as growth inhibition at 10 uM measured after 48 hrs by NCI protocol based SRB assay relative to control; type: functional; conditions: read-out: GI
NCI/ADR-RES = assay: Antiproliferative activity against human NCl/ADR-RES cells assessed as growth inhibition at 10 uM measured after 48 hrs by NCI protocol based SRB assay relative to control; type: functional; conditions: read-out: GI
KM12 = assay: Antiproliferative activity against human KM12 cells assessed as growth inhibition at 10 uM measured after 48 hrs by NCI protocol based SRB assay relative to control; type: functional; conditions: read-out: GI
MOLT-4 = assay: Antiproliferative activity against human MOLT-4 cells assessed as growth inhibition at 10 uM measured after 48 hrs by NCI protocol based SRB assay relative to control; type: functional; conditions: read-out: GI
MDA-MB-435 = assay: Antiproliferative activity against human MDA-MB-435 cells assessed as growth inhibition at 10 uM measured after 48 hrs by NCI protocol based SRB assay relative to control; type: functional; conditions: read-out: GI
T47D = assay: Antiproliferative activity against human T47D cells assessed as growth inhibition at 10 uM measured after 48 hrs by NCI protocol based SRB assay relative to control; type: functional; conditions: read-out: GI
UACC-257 = assay: Antiproliferative activity against human UACC-257 cells assessed as growth inhibition at 10 uM measured after 48 hrs by NCI protocol based SRB assay relative to control; type: functional; conditions: read-out: GI
K562 [3] = assay: Antiproliferative activity against human K562 cells assessed as reduction in cell viability incubated for 72 hrs by resazurin dye based assay; type: functional; conditions: K562, 72 h
NCI-H460 = assay: Antiproliferative activity against human NCI-H460 cells assessed as growth inhibition at 10 uM measured after 48 hrs by NCI protocol based SRB assay relative to control; type: functional; conditions: read-out: GI
SR = assay: Antiproliferative activity against human SR cells assessed as growth inhibition at 10 uM measured after 48 hrs by NCI protocol based SRB assay relative to control; type: functional; conditions: read-out: GI
MV4-11 = assay: Antiproliferative activity against human MV4-11 cells assessed as reduction in cell viability incubated for 72 hrs by resazurin dye based assay; type: functional; conditions: MV4-11, 72 h
MDA-MB-468 = assay: Antiproliferative activity against human MDA-MB-468 cells assessed as growth inhibition at 10 uM measured after 48 hrs by NCI protocol based SRB assay relative to control; type: functional; conditions: read-out: GI
SF-539 = assay: Antiproliferative activity against human SF-539 cells assessed as growth inhibition at 10 uM measured after 48 hrs by NCI protocol based SRB assay relative to control; type: functional; conditions: read-out: GI
SN12C = assay: Antiproliferative activity against human SN12C cells assessed as growth inhibition at 10 uM measured after 48 hrs by NCI protocol based SRB assay relative to control; type: functional; conditions: read-out: GI
UO-31 = assay: Antiproliferative activity against human UO-31 cells assessed as growth inhibition at 10 uM measured after 48 hrs by NCI protocol based SRB assay relative to control; type: functional; conditions: read-out: GI
CAKI-1 = assay: Antiproliferative activity against human CAKI-1 cells assessed as growth inhibition at 10 uM measured after 48 hrs by NCI protocol based SRB assay relative to control; type: functional; conditions: read-out: GI
UACC-62 = assay: Antiproliferative activity against human UACC-62 cells assessed as growth inhibition at 10 uM measured after 48 hrs by NCI protocol based SRB assay relative to control; type: functional; conditions: read-out: GI
MDA-MB-231 = assay: Antiproliferative activity against human MDA-MB-231 cells assessed as growth inhibition at 10 uM measured after 48 hrs by NCI protocol based SRB assay relative to control; type: functional; conditions: read-out: GI
CCRF-CEM [4] = assay: Antiproliferative activity against human CCRF-CEM cells assessed as growth inhibition at 10 uM measured after 48 hrs by NCI protocol based SRB assay relative to control; type: functional; conditions: read-out: GI
NCI-H522 = assay: Antiproliferative activity against human NCI-H522 cells assessed as growth inhibition at 10 uM measured after 48 hrs by NCI protocol based SRB assay relative to control; type: functional; conditions: read-out: GI
RS4-11 [5] = assay: Downregulation of MEIS1 protein expression in human RS4-11 cells at 5 to 20 uM measured after 24 hrs by Western blot analysis; type: functional, cell-based; conditions: dose 5-20 µM
ML-2 = assay: Antiproliferative activity against human ML-2 cells assessed as reduction in cell viability incubated for 72 hrs by resazurin dye based assay; type: functional; conditions: ML-2, 72 h
RS4-11 [6] = assay: Antiproliferative activity against human RS4-11 cells assessed as reduction in cell viability incubated for 72 hrs by resazurin dye based assay; type: functional; conditions: RS4-11, 72 h
RS4-11 [7] = assay: Downregulation of HOXA9 protein expression in human RS4-11 cells at 5 to 20 uM measured after 24 hrs by Western blot analysis; type: functional, cell-based; conditions: dose 5-20 µM
RS4-11 [8] = assay: Induction of cell cycle arrest in human RS4-11 cells assessed as accumulation of cells in subG1 phase at 1.25 to 10 uM measured after 72 hrs by PI staining based flow cytometry analysis; type: functional; conditions: dose 1.25-10 µM
RS4-11 [9] = assay: Induction of cell cycle arrest in human RS4-11 cells assessed as accumulation of cells in G2/M phase at 1.25 to 10 uM measured after 72 hrs by PI staining based flow cytometry analysis; type: functional; conditions: dose 1.25-10 µM
KOPN-8 = assay: Antiproliferative activity against human KOPN-8 cells assessed as reduction in cell viability incubated for 72 hrs by resazurin dye based assay; type: functional; conditions: KOPN-8, 72 h

In the case of `COc1cc(-c2c(C#N)c(-c3ccco3)nc3c2c(-c2ccccc2)nn3-c2ccccc2)ccc1O`, the inhibition of growth at 10 µM (MCF7) is reported as 34%, the IC50 (CCRF-CEM [1]) is reported as 36.5 µM and the inhibition of growth at 10 µM (OVCAR-8) is reported as 15%. For the same molecule, the inhibition of growth at 10 µM (ACHN) was 12%, the inhibition of growth at 10 µM (HT-29) was 15% and the inhibition of growth at 10 µM (OVCAR-4) was 19%. The inhibition of growth at 10 µM (HCT-116) was 43%, the inhibition of growth at 10 µM (IGROV-1) was 13% and the inhibition of growth at 10 µM (786-0) was 26%. For the same molecule, the inhibition of growth at 10 µM (SK-MEL-2) was 11%, the inhibition of growth at 10 µM (EKVX) was 31% and the inhibition of growth at 10 µM (K562 [2]) was 32%. For the same molecule, the inhibition of growth at 10 µM (NCI-H226) was 15%, the inhibition of growth at 10 µM (U-251) was 15% and the inhibition of growth at 10 µM (SK-OV-3) was 15%. The inhibition of growth at 10 µM (RPMI-8226) was 21%, the inhibition of growth at 10 µM (SNB-75) was 27% and the inhibition of growth at 10 µM (A549) was 39%. It also gave an inhibition of growth at 10 µM (SW-620) of 11%, an inhibition of growth at 10 µM (HCT-15) of 28% and an inhibition of growth at 10 µM (PC-3) of 41%. For the same molecule, the inhibition of growth at 10 µM (SK-MEL-5) was 20%, the inhibition of growth at 10 µM (HOP-92) was 33% and the inhibition of growth at 10 µM (SF-268) was 25%. The inhibition of growth at 10 µM (SNB-19) was 13%, the inhibition of growth at 10 µM (NCI/ADR-RES) was 19% and the inhibition of growth at 10 µM (KM12) was 15%. It also gave an inhibition of growth at 10 µM (MOLT-4) of 47%, an inhibition of growth at 10 µM (MDA-MB-435) of 23% and an inhibition of growth at 10 µM (T47D) of 34%. For the same molecule, the inhibition of growth at 10 µM (UACC-257) was 16%, the IC50 (K562 [3]) was 24.9 µM and the inhibition of growth at 10 µM (NCI-H460) was 28%. It also gave an inhibition of growth at 10 µM (SR) of 34%, an IC50 (MV4-11) of 35.3 µM and an inhibition of growth at 10 µM (MDA-MB-468) of 14%. For the same molecule, the inhibition of growth at 10 µM (SF-539) was 13%, the inhibition of growth at 10 µM (SN12C) was 18% and the inhibition of growth at 10 µM (UO-31) was 27%. It also gave an inhibition of growth at 10 µM (CAKI-1) of 29%, an inhibition of growth at 10 µM (UACC-62) of 18% and an inhibition of growth at 10 µM (MDA-MB-231) of 17%. The inhibition of growth at 10 µM (CCRF-CEM [4]) was 25% and the inhibition of growth at 10 µM (NCI-H522) was 30%.

For `N#Cc1c(-c2ccc(F)cc2)nc2c(c(-c3ccccc3)nn2-c2ccccc2)c1-c1ccc(O)cc1`, the Activity (RS4-11 [5]) was “Active”, the IC50 (CCRF-CEM [1]) was greater than 25 µM and the IC50 (ML-2) was 6.7 µM. For the same molecule, the IC50 (RS4-11 [6]) was 9.9 µM, the Activity (RS4-11 [7]) was “Active” and the IC50 (K562 [3]) was 10.2 µM. For the same molecule, the Activity (RS4-11 [8]) was “Active”, the IC50 (MV4-11) was 11.6 µM and the Activity (RS4-11 [9]) was “Active”. For the same molecule, the IC50 (KOPN-8) was 1300 nM.
